Measured values as given in patent publication US8540967B2, “Porphyrazine optical and dual optical/MR contrast and therapeutic agents” (Hoffman/Barrett, L.L.C., priority 2008, dated 2013).

Columns and labels:
A549 tumor cells = assay: MTT assay, tumor cells; assay type: cell-based; conditions: 50 μM
Experimental: (§1) The MTT test was performed using the procedure disclosed in S. Lee et al., Metal-Based Drugs (2008), pages 391-418.

[1] = system: WI38 VA13 non-tumorigenic cells; assay: Confocal NIR fluorescence microscopy of cellular uptake, non-tumorigenic cells; assay type: cell-based; conditions: confocal images; 50 μM
Experimental: (§2) Cellular uptake monitored by confocal fluorescence microscopy is dependent on the pz's overall amphiphilicity, and qualitative analysis indicates preferential uptake into tumor cells (e.g., A549) over non-tumorigenic cells (e.g., WI38 VA13).
as §1
Therefore, compound 270, a pz having a single appended Gd^3+, was synthesized.

[2] = system: MDA-MB-231-RFP subcutaneous tumors; assay: NIR fluorescence imaging of subcutaneous tumors in female SCID mice; assay type: in vivo, mouse
Text: In a second experiment to verify that compound 247 robustly and reproducibly localizes in tumors of more than one tissue origin, female SCID mice were subcutaneously injected with MDA-MB-231-RFP cells stably expressing Red Fluorescent Protein (RFP). This approach provides excellent confirming information because (a) palpable subcutaneous tumors are easily identified prior to imaging as opposed to bone tumors which are difficult to detect non-invasively; (b) RFP-expressing tumors are visible through the skin as opposed to GFP tumors, which require removal of skin prior to imaging; (c) pz localization in the tumor is visible during non-invasive whole animal imaging; and (d) tumors are easily harvested, fixed, and processed for histochemical and biochemical analyses. Five mice were dosed with 20 nmol of compound 247 in 7.5% DMSO, administered intravenously. The […] wavelength used for RFP excitation was 535 nm with emission detected using a 565-615 nm bandpass filter. Compound 247 was excited using a 625 nm bandpass and emission detected at 700 nm. […] Therefore, there is no penetration of undesired signal during imaging. Images were acquired for RFP, as well as pz fluorescence, after 5, 24, 32 and 48 hours. […] With this remarkable contrast, compound 247 therefore acts as a ‘turn-on’ NIR-fluorescence tumor imager. At the conclusion of the 48 hour experiment, the tumors were excised and processed for antibody staining. Slices were stained for nuclei (DAPI) to determine the localization of pzs within heterogeneous 3-dimensional tumors. […] The important benefit of having the RFP and pz survive tissue processing is noted.

[3] = system: A549 lung carcinoma cells; assay: Confocal NIR fluorescence microscopy of cellular uptake, tumor cells; assay type: cell-based; conditions: confocal images; compound 247: 50 μM, 24 hr stain
Experimental: as §2, §1

[4] = system: PC3-EGFP (human prostate tumor cells stably expressing GFP) tibia tumors; assay: Biodistribution by NIR fluorescence imaging in mice with tibia tumors; assay type: in vivo, mouse
Experimental: In one experiment, male FVB/n5 Rag-1−/− mice were injected with […] PC3-EGFP (human prostate tumor cells stably expressing GFP) in the tibia four weeks prior to imaging with pzs. Prior to imaging, the mice were anesthetized with 4% isoflurane and injected with 20 nmol of compound 247 (150 μL, 7.5% DMSO) intravenously via the tail vein. Fluorescent images were acquired immediately and after 4, 24, and 42 hours. […] GFP images were acquired using excitation wavelengths of 465 nm and fluorescence was detected at 535 nm. X-ray images were acquired for anatomical co-registration.
The mice subsequently were euthanized, legs were excised, and images were acquired without the surrounding skin and muscle.

[5] = system: A549 lung carcinoma cells; assay: Time course studies of pz accumulation and cell viability; assay type: cell-based
Experimental: Time course studies also were performed using compounds 241, 243, 244, 246, 247, 249, 254, and 255 using A549 lung carcinoma cells and W138 VA13 non-tumorigenic cells. The studies confirmed accumulation of a present pz in tumor cells and a decrease in tumor cell viability.

[6] = system: WI38 VA13 non-tumorigenic cells; assay: MTT assay, non-tumorigenic cells; assay type: cell-based; conditions: 50 μM
Experimental: as §1

[7] = Relaxivity (r1) of Gd-pz conjugates; assay type: physicochemical
Experimental: Dual-mode contrast agents were generated by coupling pz optical agents with gadolinium-based (Gd^3+) MR agents in order to permit co-registration of optical and MR image data. The synthetic versatility of the present pz structure allows a variety of strategies for attaching multiple MR imaging agents, for example, Gd^3+ chelates, to the pz structure. […] The relaxivity of a Gd^3+ chelate attached to a pz ranges from about 10 to about 14 mM-1s-1/Gd (Table 1).
In the preparation of Gd-pzs, ‘click’ chemistry was used to append 4 and 8 Gd^3+ chelates to an M[pz(A2; B2)] pz, leading to the Gd8-Mpz conjugate (M=Zn, Cu) shown above, and analogous Gd-4-Mpz conjugates having one chelate per pz ‘arm’. […] This is significant because the higher the observed relaxivity of the conjugate, the greater its efficacy as an in vivo MR contrast agent. Importantly, these conjugates are suitable as dual-mode contrast agents because the presence of as many as eight Gd agents has no significant influence on the pz luminescence for the M=Zn complex. In addition, the pz-Gd conjugates are water soluble and can be administered to rodents without the addition of DMSO.

Row | SMILES | Toxicity to tumor cells (MTT) (A549 tumor cells) | Uptake into WI38 VA13 cells (NIR fluorescence) [1] | Time until pz fluorescence detectable in tumor ([2]; 20 nmol i.v. in 7.5% DMSO) | pz fluorescence intensity in tumor over time ([2]; 20 nmol i.v., over the 48 hour experiment) | pz fluorescence in other organs or tissues ([2]; 20 nmol i.v., up to 48 hours) | Accumulation in MDA-231 tumors in vivo ([2]; 20 nmol tail vein, 5 to 48 hours) | Localization within excised tumor sections ([2]; tumors excised at 48 hours, DAPI-stained slices) | Uptake/accumulation in A549 lung carcinoma cells (NIR fluorescence) [3] | pz fluorescence location after 4 hours ([4]; 20 nmol i.v. tail vein, 4 hours) | pz fluorescence location after 24 hours ([4]; 20 nmol i.v. tail vein, 24 hours) | Red fluorescence location in excised legs ([4]; 20 nmol, excised legs without skin and muscle, overlay with GFP) | Retention in tumor-free tibia ([4]; mouse 3 without tumor) | Accumulation of pz in tumor cells [5] | Tumor cell viability [5] | Toxicity to non-tumorigenic cells (MTT) [6] | Relaxivity r1/Gd ([7]; per Gd) | Relaxivity r1 (molecular relaxivity) ([7]; per molecule)
1 | CO[C@]1(C)Oc2c(c3nc4nc(nc5[nH]c(nc6nc(nc2[nH]3)-c2c(OC(C)C)ccc(OC(C)C)c2-6)c2c5O[C@@](C)(OC)[C@](C)(OC)O2)-c2c(OC(C)C)ccc(OC(C)C)c2-4)O[C@@]1(C)OC [Compound 247] | mildly toxic | lesser uptake | ≤ 5 h | increased dramatically | no pz fluorescence in other mouse organs or tissues | accumulates over time | precise colocalization of compound 247 with the tumor cytosol | excellent uptake | seen in the liver | highly localized in the mouse tibia tumors | localized in the tumors | not non-specifically retained in the bones | accumulation | decrease | non-toxic |  | 
2 | O=C([O-])CN1CCN(CC(=O)[O-])CCN(CC(=O)O)CCN(CC(=O)[O-])CC1.[Gd+3] [Gd-DOTA, gadolinium tetrazacyclododecanetetraacetic acid] |  |  |  |  |  |  |  |  |  |  |  |  |  |  |  | 3.2 mM⁻¹ s⁻¹ | 3.2 mM⁻¹ s⁻¹
